Laboratory results: patent US20240226234A1, “WNT5A PEPTIDES FOR THE TREATMENT OF ACUTE M[…]” (W[…], priority 2021, published 2024)
No end group written: not given here. *: point of attachment. For = O=C*

How the values were obtained:
[1] = NOD/SCID mice, U937 xenograft, Foxy-5 vs vehicle, after 9 days
Experimental: For the xenograft mouse model, a concentration of 40 μg/μL of Foxy-5 was used. […] Mice were anesthetized with isoflurane (4%) and U937 cells (5,000,000 cells/mouse) were inoculated in the mouse dorsal region by subcutaneous injection. When the tumours reached 100 mm^3, the treatment was initiated. Foxy-5 was administered once every 2 days by intraperitoneal injection. The control group received equal amounts of vehicle solution. The tumour volumes were measured every 2 days and evaluated according to the formula: tumour volume (mm^3) ¼ (length×width^2)/2. After 9 days, the mice were sacrificed, the tumour excised and tumour dimensions (tumour volume (mm^3) and tumour weight (grams, g)) were evaluated.

HL60 cells [2] = assay: ROS production by flow cytometry, HL60 cells; format: cell-based, human; details: 72 h; for ROS production (MFI): HL60, 2D culture on HS5 stromal cells; for ROS production (mean fluorescence intensity): HL60, monoculture
Experimental: (§1) A panel of human myeloid leukemia cell lines (HL60, K562, KG1a, THP1 and U937) and HS-5 mesenchymal stromal cells lineage were cultured in Roswell Park Memorial Institute medium-1640 (RPMI; Sigma) containing 10% Fetal Bovine Serum (Gibco), glutamine (2 mM; Sigma), penicillin (100 μg/mL; Sigma), streptomycin (100 μg/mL; Sigma), and amphotericin B (0.25 μg/mL; Gibco). The cells were maintained in a humidified atmosphere at 37° C. and 5% CO2 and the experiments were performed when they reached exponential growth. For the assays, cells were seeded on a 24-well plate and treated or not with Foxy-5 for 72 hours.
(§2) Cells treated with Foxy or with vehicle were collected and intracellular ROS generation was measured by flow cytometry following staining with DCFDA ([…]; Sigma). Acquisition of cells was performed on a FACScalibur flow cytometer (BD) and analysis was carried out using the FlowJo software.
(§3) Leukemia cell lines were treated for 72 h with Foxy-5, at doses of 50 and 100 μM, or vehicle, stained with DCFHA dye, and analyzed by flow cytometry.

U937 cells = assay: ROS production by flow cytometry, U937 cells; format: cell-based, human; details: 72 h; for ROS production (MFI): U937, 2D culture on HS5 stromal cells; for ROS production (mean fluorescence intensity): U937, monoculture
Experimental: as §1, §2, §3

PI3K and MAPK pathways = assay: Western blot of PI3K and MAPK pathway proteins, U937 cells; format: cell-based, human; details: U937, Foxy-5 50 μM or 100 μM, 72 h
Experimental: Equal amounts of protein were resolved by sodium dodecyl sulphate-polyacrylamide gel electrophoresis and transferred onto nitrocellulose membranes (Millipore). Detection was carried out with the chemiluminescent substrate using an ECL Plus (GE-Healthcare). Monoclonal antibodies against P70S6K (sc-8418) and polyclonal antibodies against Actin (sc-1616), AKT1/2/3 (sc-8312), BAX (sc-493), BCL-XL (sc-8392), GAPDH (sc-32,233), p-AKT1/2/3 (sc-33,437) and p-P70S6K (sc-7984) were purchased from Santa Cruz Biotechnology. ERK1/2 ([pT185/Y187]; 44-680G) and ERK1/2 (44-654G) from Invitrogen. Quantitative blots were carried out using the UN-SCAN-IT densitometer software.
Based on the above results, the activity of proteins of PI3K and MAPK pathways were then investigated in a western blot. Briefly, U937 and K562 cells were seeded and treated with Foxy-5 (50 μM or 100 μM) or vehicle for 72 hours. Then, equal amounts of protein were used for total extracts followed by electrophoresis on 12% SDS polyacrylamide gels under reducing conditions, transferred to nitrocellulose membranes, blocked with 10% skimmed milk in TBS-0.1% Tween for 1 hour, stained with appropriate primary and secondary antibodies. The membranes were visualized with chemiluminescence using an ECL Plus (GE-Healthcare). Quantitative analyses of the optical intensities of the protein bands were determined with Un-Scan-It Gel 6.1 (Silk Scientific Inc.).

U937 xenografts = assay: U937 xenograft mouse model, tumour growth; format: in vivo; details: NOD/SCID mice, Foxy-5 40 μg/μL i.p. once every 2 days
Description: The control group received equal amounts of vehicle solution.

KG1a cells [3] = assay: ROS production by flow cytometry, KG1a cells; format: cell-based, human; details: 72 h; for ROS production (MFI): 2D culture on HS5 stromal cells; for ROS production (mean fluorescence intensity): monoculture
Experimental: as §1, §2, §3

HL60 cells [4] = assay: Transwell chemotaxis assay toward CXCL12, HL60 cells; format: cell-based, human; details: HL60, Foxy-5 100 μM 72 h pretreatment, CXCL12 100 ng/mL, 24 h
Experimental: Leukemic cell lines, pretreated or not with Foxy-5 (72 hours of stimulation) were tested for chemotaxis in Transwell-based assays for Chemotaxis (6.5 mm diameter, 8 μm pore size; Corning). Polycarbonate membranes were incubated with poly-L-lysine (1 mg/mL) for 1 hour at 37° C. followed by saline buffer washing. Briefly, cells were collected, washed with media containing bovine serum albumin (0.1% BSA; Sigma), and then seeded at a density of 5×10^5 cells into the upper chamber of the transwell. The lower chamber was filled with media containing 0.5% BSA (negative control), media containing 10% FBS (positive control) and media 5 containing 0.5% BSA with CXCL12 (100 ng/ml; Peprotech) (Melo et al., 2014). Following 6 h or 24 h of incubation at 37° C., cells that migrated into the lower chamber were collected, centrifuged, resuspended in saline buffer and counted. The number of migrated cells was expressed as a percentage of the input, i.e., the cells number applied directly to the lower compartment in parallel wells. The migration of cells was normalized to 100%+/−standard deviation (SD) of triplicates (Favaro et al., 2013).
We investigated whether restoring of WNT5A could enable the modulation CXCL12-induced chemotaxis of leukemia cells. […]

K562 cells = assay: ROS production by flow cytometry, K562 cells; format: cell-based, human; details: 72 h; for ROS production (MFI): K562, 2D culture on HS5 stromal cells; for ROS production (mean fluorescence intensity): K562, monoculture
Experimental: as §1, §2, §3

KG1a cells [5] = assay: Cell growth assay, KG1a cells; format: cell-based, human; details: Foxy-5 100 μM, 72 h
Experimental: as §1
Cells treated with Foxy or with vehicle were collected and cell number was evaluated by manual counting in monoculture and by microscopy with Image J software analysis in 2D culture.
Next, we evaluated the proliferation rates since this process is modulated by ROS. We treated the cells with Foxy-5 (100 μM) or with vehicle (DMSO) during 72 hours, and then cell growth was analyzed by counting the cells in monoculture, manually, or by the Image J software analysis of the 2D cultures. […] Similar results were obtained in the 2D culture system using leukemia cells and HS-5 mesenchymal stromal cells.

Foxy-5: Formylated hexapeptide fragment of WNT5A: MDGCEL (SEQ. ID. NO. 3) with methionine in position 1 as N-formyl methionine; WNT5A-mimicking compound (For-MDGCEL; listed as Homo sapiens)
body weights of the xenograft mice [1]: did not vary significantly
ROS production (MFI) (HL60 cells [2]; Foxy-5 50 μM): 28.52 (range 26.37-30.00) MFI
ROS production (MFI) (HL60 cells [2]; Foxy-5 100 μM): 28.50 (range 25.03-30.30) MFI
ROS production (mean fluorescence intensity) (HL60 cells [2]; Foxy-5 50 μM): 17.45 (range 16.40-19.30) MFI
ROS production (mean fluorescence intensity) (HL60 cells [2]; Foxy-5 100 μM): 10.32 (range 10.10-10.80) MFI
ROS production (MFI) (U937 cells; Foxy-5 50 μM): 20.90 (range 19.90-22.63) MFI
ROS production (MFI) (U937 cells; Foxy-5 100 μM): 23.50 (range 21.70-23.80) MFI
ROS production (mean fluorescence intensity) (U937 cells; Foxy-5 50 μM): 7.32 (range 4.80-8.67) MFI
ROS production (mean fluorescence intensity) (U937 cells; Foxy-5 100 μM): 7.09 (range 4.70-8.40) MFI
phosphorylation level of AKT compared to vehicle-treated cells (PI3K and MAPK pathways): lower phosphorylation levels
phosphorylation level of ERK compared to vehicle-treated cells (PI3K and MAPK pathways): lower phosphorylation levels
protein level of cyclin D1 compared to vehicle-treated cells (PI3K and MAPK pathways): reduced protein level
tumour volume (median) (U937 xenografts; 9 days): 469 mm^3
inhibition of tumour growth (U937 xenografts; vs control group at day 9): 55.46%
inhibition of tumour weight (U937 xenografts; vs control group at day 9): 45.51%
ROS production (MFI) (KG1a cells [3]; Foxy-5 50 μM): 75.03 (range 75.03-77.70) MFI
ROS production (MFI) (KG1a cells [3]; Foxy-5 100 μM): 69.00 (range 68.00-72.00) MFI
ROS production (mean fluorescence intensity) (KG1a cells [3]; Foxy-5 50 μM): 36.30 (range 35.80-36.80) MFI
ROS production (mean fluorescence intensity) (KG1a cells [3]; Foxy-5 100 μM): 29.72 (range 28.10-31.33) MFI
CXCL12-induced chemotaxis (migrated cells as percentage of the input, average) (HL60 cells [4]): 4.31%
ROS production (MFI) (K562 cells; Foxy-5 50 μM): 126.00 (range 125.000-128.20) MFI
ROS production (MFI) (K562 cells; Foxy-5 100 μM): 98.25 (range 98.25-104.00) MFI
ROS production (mean fluorescence intensity) (K562 cells; Foxy-5 50 μM): 83.90 (range 75.80-88.40) MFI
ROS production (mean fluorescence intensity) (K562 cells; Foxy-5 100 μM): 68.75 (range 64.40-72.75) MFI
reduced cell growth compared to vehicle treated cells (KG1a cells [5]; 2D culture with HS-5 stromal cells): 2.63 fold decrease
reduced cell growth compared to vehicle treated cells (KG1a cells [5]; monoculture): 1.37 fold decrease
